Some results are limits rather than exact numbers.

T1 sequence (Q9Y5Y9 whole entry): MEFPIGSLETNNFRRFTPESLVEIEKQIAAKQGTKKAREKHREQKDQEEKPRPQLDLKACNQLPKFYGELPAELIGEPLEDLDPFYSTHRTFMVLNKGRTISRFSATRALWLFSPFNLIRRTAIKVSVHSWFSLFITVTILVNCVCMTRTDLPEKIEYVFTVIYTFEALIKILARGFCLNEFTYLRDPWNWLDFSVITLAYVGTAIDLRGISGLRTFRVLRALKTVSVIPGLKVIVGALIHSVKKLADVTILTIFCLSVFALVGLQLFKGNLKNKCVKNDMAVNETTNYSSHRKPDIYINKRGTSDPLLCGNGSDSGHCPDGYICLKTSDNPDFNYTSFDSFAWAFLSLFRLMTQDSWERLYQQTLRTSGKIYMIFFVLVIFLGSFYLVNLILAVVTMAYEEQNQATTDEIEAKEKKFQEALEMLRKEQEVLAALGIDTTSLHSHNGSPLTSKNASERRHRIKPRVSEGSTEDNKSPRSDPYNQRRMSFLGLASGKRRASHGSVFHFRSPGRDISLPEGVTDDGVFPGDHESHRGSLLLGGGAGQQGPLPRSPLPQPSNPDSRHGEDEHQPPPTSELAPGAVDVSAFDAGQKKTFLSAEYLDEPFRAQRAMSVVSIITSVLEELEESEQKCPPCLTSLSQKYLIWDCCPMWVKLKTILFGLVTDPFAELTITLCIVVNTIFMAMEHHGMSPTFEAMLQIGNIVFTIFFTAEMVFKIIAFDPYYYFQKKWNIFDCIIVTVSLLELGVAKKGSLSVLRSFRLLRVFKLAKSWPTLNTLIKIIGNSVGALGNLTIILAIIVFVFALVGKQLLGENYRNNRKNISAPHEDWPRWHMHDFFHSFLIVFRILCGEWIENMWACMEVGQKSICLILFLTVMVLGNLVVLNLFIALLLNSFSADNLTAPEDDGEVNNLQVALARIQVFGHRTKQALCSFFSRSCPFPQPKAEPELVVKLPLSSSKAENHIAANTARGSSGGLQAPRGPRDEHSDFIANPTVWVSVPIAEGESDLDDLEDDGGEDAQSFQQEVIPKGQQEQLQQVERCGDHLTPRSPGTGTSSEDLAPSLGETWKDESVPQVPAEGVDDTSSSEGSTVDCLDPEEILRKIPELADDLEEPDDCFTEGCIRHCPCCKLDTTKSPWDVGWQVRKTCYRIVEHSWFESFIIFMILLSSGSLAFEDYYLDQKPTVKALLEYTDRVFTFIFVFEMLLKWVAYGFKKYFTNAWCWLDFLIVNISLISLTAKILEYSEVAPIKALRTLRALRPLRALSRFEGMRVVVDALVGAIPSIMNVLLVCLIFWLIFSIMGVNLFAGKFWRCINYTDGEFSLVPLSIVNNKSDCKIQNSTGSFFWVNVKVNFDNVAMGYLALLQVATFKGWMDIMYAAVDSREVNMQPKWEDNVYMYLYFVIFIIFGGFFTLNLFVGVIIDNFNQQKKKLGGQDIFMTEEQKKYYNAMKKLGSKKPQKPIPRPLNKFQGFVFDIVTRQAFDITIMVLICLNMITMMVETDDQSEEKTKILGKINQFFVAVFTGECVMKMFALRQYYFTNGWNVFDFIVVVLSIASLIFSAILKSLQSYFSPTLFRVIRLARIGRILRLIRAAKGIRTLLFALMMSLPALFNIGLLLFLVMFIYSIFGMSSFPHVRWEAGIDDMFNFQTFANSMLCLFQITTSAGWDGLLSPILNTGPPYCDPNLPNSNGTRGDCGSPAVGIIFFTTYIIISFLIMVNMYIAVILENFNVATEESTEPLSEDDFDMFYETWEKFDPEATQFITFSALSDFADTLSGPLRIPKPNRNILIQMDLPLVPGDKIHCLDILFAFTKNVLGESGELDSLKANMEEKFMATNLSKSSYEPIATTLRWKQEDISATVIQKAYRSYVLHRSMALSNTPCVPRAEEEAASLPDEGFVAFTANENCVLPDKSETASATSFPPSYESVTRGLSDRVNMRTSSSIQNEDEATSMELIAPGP

This experiment concerns the target T1, NaV 1.8 channel (Homo sapiens, UniProt Q9Y5Y9).
T1 construct: expressed in transfected cells; host or cells: HEK293
The experiment is described as follows: VIPR optical membrane potential assay with electrical stimulation, NaV1.8 inhibition. The experiment is classed as cell-based. The conditions noted are these: activity against NaV 1.8 channel. On the procedure: Compounds of the invention are useful as antagonists of voltage-gated sodium ion channels. Antagonist properties of test compounds were assessed as follows. Cells expressing the NaV of interest were placed into microtiter plates. After an incubation period, the cells were stained with fluorescent dyes sensitive to the transmembrane potential. The test compounds were added to the microtiter plate. The cells were stimulated with either a chemical or electrical means to evoke a NaV dependent membrane potential change from unblocked channels, which was detected and measured with trans-membrane potential-sensitive dyes. Antagonists were detected as a decreased membrane potential response to the stimulus. The optical membrane potential assay utilized voltage-sensitive FRET sensors described by Gonzalez and Tsien (See, Gonzalez, J. E. and R. Y. Tsien (1995) “Voltage sensing by fluorescence resonance energy transfer in single cells” Biophys J 69(4): 1272-80, and Gonzalez, J. E. and R. Y. Tsien (1997) “Improved indicators of cell membrane potential that use fluorescence resonance energy transfer” Chem Biol 4(4): 269-77) in combination with instrumentation for measuring fluorescence changes such as the Voltage/Ion Probe Reader (VIPR®) (See, Gonzalez, J. E., K. Oades, et al. (1999) “Cell-based assays and instrumentation for screening ion-channel targets” Drug Discov Today 4(9): 431-439).
C) VIPR® Optical Membrane Potential Assay Method with Electrical Stimulation
The following was an example of how NaV1.8 inhibition activity was measured using the optical membrane potential method #2. Other subtypes were performed in an analogous mode in a cell line expressing the NaV of interest.
HEK293 cells stably expressing NaV1.8 were plated into 96-well microtiter plates. After an appropriate incubation period, the cells were stained with the voltage sensitive dyes CC2-DMPE/DiSBAC6(3) as follows.
2×CC2-DMPE/DiSBAC6(3)=8 μM CC2-DMPE/8 μM DiSBAC6(3): 10 mM CC2-DMPE and DiSBAC6(3) was vortexed with an equivalent volume of 10% pluronic, followed by vortexing in required amount of Bath Solution #1. Each cell plate required 5 mL of 2×CC2-DMPE/DiSBAC6(3). 50 μL of 2×CC2-DMPE/DiSBAC6(3) was added to wells containing washed cells, resulting in a 4 μM final staining concentration of both dyes. The cells were stained for 30 minutes in the dark at RT.
2×ABSC1=1 mM ABSC1: The required amount of 200 mM ABSC1 was added to a 50 ml conical tube and mixed with 1 μL 10% pluronic for each mL of solution made and vortexed together. Then Bath Solution #1 was added to make up a 2× solution. Finally, the ABSC1 was added.
The 2×ABSC1 solution was used to solvate compound plates. Note that compound plates were made at 2× drug concentration. The stained plate was washed again, leaving residual volume of 50 μL. Added 50 μL/well of the 2×ABSC1. The cells were stained for 30 minutes in the dark at RT.
The electrical stimulation instrument and methods of use are described in ION Channel Assay Methods PCT/US01/21652 and Nat Biotech 2006, 24(4), 439-446, both herein incorporated by reference. The instrument comprises a microtiter plate handler, an optical system for exciting the coumarin dye while simultaneously recording the coumarin and oxonol emissions, a waveform generator, a current- or voltage-controlled amplifier, and a device for inserting electrodes in well. Under integrated computer control, this instrument passed user-programmed electrical stimulus protocols to cells within the wells of the microtiter plate.
Assay Protocol • 1. Inserted or used electrodes into each well that was assayed. • 2. Used the current-controlled amplifier to deliver stimulation wave pulses for 3 s. Two seconds of pre-stimulus recording was performed to obtain the un-stimulated intensities. Five seconds of post-stimulation recording was performed to examine the relaxation to the resting state. […]
Broadly, the IC50 is the midpoint of a concentration-inhibition curve. As to `CC(C)(C)COC(=O)N[C@@H]1CCN(c2nc(-c3ccccc3O)nc3ccc(F)cc23)C1` [Compound 4, (R)-Neopentyl 1-(6-fluoro-2-(2-hydroxyphenyl)quinazolin-4-yl)pyrrolidin-3-ylcarbamate], the IC50 was more than 5000 nM. Turning to `Cc1ccc2c(N3CC[C@@H](NC(=O)OCC(C)C)C3)nc(-c3ccccc3C(F)F)nc2c1` [Compound 17, (R)-Isobutyl 1-(2-(2-(difluoromethyl)phenyl)-7-methylquinazolin-4-yl)pyrrolidin-3-ylcarbamate], the IC50 was less than 1000 nM. Next, `Cc1ccc2c(N3CC[C@@H](NC(=O)OCC(C)C)C3)nc(-c3c(O)cccc3F)nc2c1` [Compound 8, (R)-Isobutyl 1-(2-(2-fluoro-6-hydroxyphenyl)-7-methylquinazolin-4-yl)pyrrolidin-3-ylcarbamate]: less than 1000 nM; `COCCOC(=O)N[C@H]1CCN(c2nc(-c3ccccc3O)nc3cc(C)ccc23)C1` [Compound 6, (S)-{1-[2-(2-Hydroxy-phenyl)-7-methyl-quinazolin-4-yl]-pyrrolidin-3-yl}-carbamic acid 2-methoxy-ethyl ester]: more than 5000 nM. Next, `Cc1ccc2c(N3CC[C@@H](NC(=O)OCC(C)(C)C)C3)nc(-c3ccccc3O)nc2c1` [Compound 9, (R)-Neopentyl 1-(2-(2-hydroxyphenyl)-7-methylquinazolin-4-yl)pyrrolidin-3-ylcarbamate]: less than 1000 nM. Next, `CCOC(=O)N[C@@H]1CCN(c2nc(-c3ccccc3O)nc3cc(C)ccc23)C1` [Compound 2, (R)-Ethyl 1-(2-(2-hydroxyphenyl)-7-methylquinazolin-4-yl)pyrrolidin-3-ylcarbamate]: less than 1000 nM. Regarding `CC(C)COC(=O)N[C@@H]1CCN(c2nc(-c3ccccc3O)nc3ccc(F)cc23)C1` [Compound 15, (R)-Isobutyl 1-(6-fluoro-2-(2-hydroxyphenyl)quinazolin-4-yl)pyrrolidin-3-ylcarbamate], the IC50 lay within 1000 to 5000 nM.

On to `Cc1ccc2c(N3CC[C@@H](NC(=O)OCC(C)(C)C)C3)nc(-c3ccccc3C(F)F)nc2c1` [Compound 18, (R)-Neopentyl 1-(2-(2-(difluoromethyl)phenyl)-7-methylquinazolin-4-yl)pyrrolidin-3-ylcarbamate], for which the IC50 was less than 1000 nM. Turning to `Cc1ccc2c(N3CC[C@@H](NC(=O)OC(C)C)C3)nc(-c3ccccc3O)nc2c1` [Compound 12, (R)-Isopropyl 1-(2-(2-hydroxyphenyl)-7-methylquinazolin-4-yl)pyrrolidin-3-ylcarbamate], the IC50 was less than 1000 nM. Take `CCCOC(=O)N[C@@H]1CCN(c2nc(-c3ccccc3O)nc3cc(C)ccc23)C1` [Compound 3, (R)-Propyl 1-(2-(2-hydroxyphenyl)-7-methylquinazolin-4-yl)pyrrolidin-3-ylcarbamate]: the IC50 is less than 1000 nM. On to `CCCOC(=O)N[C@@H]1CCN(c2nc(-c3c(O)cccc3F)nc3cc(C)ccc23)C1` [Compound 13, (R)-Propyl 1-(2-(2-fluoro-6-hydroxyphenyl)-7-methylquinazolin-4-yl)pyrrolidin-3-ylcarbamate], for which the IC50 was less than 1000 nM.

Consider `CC(C)OC(=O)N[C@@H]1CCN(c2nc(-c3ccccc3O)nc3ccc(F)cc23)C1` [Compound 16, (R)-Isopropyl 1-(6-fluoro-2-(2-hydroxyphenyl)quinazolin-4-yl)pyrrolidin-3-ylcarbamate], for which the IC50 lay in the range of 1000 to 5000 nM. Next, `COCCOC(=O)N[C@@H]1CCN(c2nc(-c3ccccc3O)nc3cc(C)ccc23)C1` [Compound 14, (R)-2-Methoxyethyl 1-(2-(2-hydroxyphenyl)-7-methylquinazolin-4-yl)pyrrolidin-3-ylcarbamate]: 1000 to 5000 nM. Next, `CCOC(=O)N[C@@H]1CCN(c2nc(-c3c(O)cccc3F)nc3cc(C)ccc23)C1` [Compound 10, (R)-Ethyl 1-(2-(2-fluoro-6-hydroxyphenyl)-7-methylquinazolin-4-yl)pyrrolidin-3-ylcarbamate]: 1000 to 5000 nM; `Cc1ccc2c(N3CC[C@@H](NC(=O)OCC(C)C)C3)nc(-c3ccccc3O)nc2c1` [Compound 5, (R)-Isobutyl 1-(2-(2-hydroxyphenyl)-7-methylquinazolin-4-yl)pyrrolidin-3-ylcarbamate]: less than 1000 nM; `Cc1ccc2c(N3CC[C@H](NC(=O)OCC(C)C)C3)nc(-c3ccccc3O)nc2c1` [Compound 7, (S)-{1-[2-(2-Hydroxy-phenyl)-7-methyl-quinazolin-4-yl]-pyrrolidin-3-yl}-carbamic acid isobutyl ester]: 1000 to 5000 nM.

Regarding `Cc1ccc2c(N3CC[C@@H](NC(=O)OCC(C)(C)C)C3)nc(-c3c(O)cccc3F)nc2c1` [Compound 11, (R)-Neopentyl 1-(2-(2-fluoro-6-hydroxyphenyl)-7-methylquinazolin-4-yl)pyrrolidin-3-ylcarbamate], the IC50 is less than 1000 nM. Turning to `COCCOC(=O)N[C@@H]1CCN(c2nc(-c3c(O)cccc3F)nc3cc(C)ccc23)C1` [Compound 1, (R)-2-Methoxyethyl 1-(2-(2-fluoro-6-hydroxyphenyl)-7-methylquinazolin-4-yl)pyrrolidin-3-ylcarbamate], the 50% inhibitory concentration (IC50) is 1000 to 5000 nM.
